The results in this text go back to ChEMBL document CHEMBL3045483, “Chalcones as promising pesticidal agents against diamondback moth (Plutella xylostella): microwave-assisted synthesis and structureactivity relationship” (Med Chem Res, 2012).

For data set [1], the system named is Plutella xylostella. Kind of data set: Insecticidal activity against second-instar larvae Plutella xylostella (diamondback moth) in compound treated cabbage leaves assessed as mortality after 48 hr by leaf dip method. The conditions noted are these: foliar. In kind it is functional.
Data set [2] relates to Plutella xylostella. Kind of data set: Insecticidal activity against second-instar larvae Plutella xylostella (diamondback moth) in compound treated cabbage leaves assessed as mortality at 5000 ug/mL after 48 hr by leaf dip method. In kind it is functional. The following applies: foliar.
Data set [3] relates to Plutella xylostella. Kind of data set: Insecticidal activity against second-instar larvae Plutella xylostella (diamondback moth) in compound treated cabbage leaves assessed as mortality at 10000 ug/mL after 48 hr by leaf dip method. In kind it is functional. The following applies: foliar.
Data set [4] in a line: Aqueous solubility of the compound. In kind it is physicochemical. The conditions noted are these: buffer.

SMILES strings stand for the structures. ≈ marks a conversion by molar mass, not a printed value.

On to `COc1ccc(C(=O)/C=C/c2ccc(Cl)c(Cl)c2)cc1`, for which the LC50 in the data set on Plutella xylostella [1] turned out to be 288 µg/mL (≈ 936 µM). Besides, the mortality at 5000 µg/mL in the data set with Plutella xylostella [2] was 100%. Besides, the mortality at 10000 µg/mL in the data set with Plutella xylostella [3] amounted to 100%.

Consider `O=C(/C=C/c1ccco1)c1ccc([N+](=O)[O-])cc1`, for which the mortality at 5000 µg/mL with Plutella xylostella [2] was 16.6%. Moreover, in the data set on Plutella xylostella [3], the mortality at 10000 µg/mL was 23%.

Take `O=C(/C=C/c1cccs1)c1ccc([N+](=O)[O-])cc1`: in the data set with Plutella xylostella [2], the mortality at 5000 µg/mL is 23.3%. In the data set on Plutella xylostella [3], the mortality at 10000 µg/mL amounted to 30%.

Regarding `O=C(/C=C/c1ccc(Cl)cc1)c1ccc2c(c1)OCO2`, the mortality at 5000 µg/mL in the data set on Plutella xylostella [2] was 13.3%. The mortality at 10000 µg/mL with Plutella xylostella [3] is 23%.

Consider `O=C(/C=C/c1ccc(Cl)cc1)c1ccc([N+](=O)[O-])cc1`, for which the mortality at 5000 µg/mL with Plutella xylostella [2] turned out to be 20%. In addition, the mortality at 10000 µg/mL in the data set on Plutella xylostella [3] was 26.6%.

`C=CCOc1ccc(C(=O)/C=C/c2ccc(Cl)cc2)cc1`: the LC50 in the data set with Plutella xylostella [1] worked out at 268 µg/mL (≈ 898 µM). Also, the mortality at 5000 µg/mL with Plutella xylostella [2] was 100%. Moreover, in the data set with Plutella xylostella [3], the mortality at 10000 µg/mL came out at 100%.

For `COc1ccc(C(=O)/C=C/c2ccc(Cl)cc2Cl)cc1`, the median lethal concentration (LC50) in the data set on Plutella xylostella [1] was 278 µg/mL (≈ 907 µM). For the same molecule, the mortality at 5000 µg/mL in the data set on Plutella xylostella [2] amounted to 100%. Besides, in the data set with Plutella xylostella [3], the mortality at 10000 µg/mL was 100%.

Take `COc1ccc(C(=O)/C=C/c2ccc(Br)cc2)cc1`: in the data set with Plutella xylostella [2], the mortality at 5000 µg/mL was determined as 3.3%. For the same molecule, the mortality at 10000 µg/mL with Plutella xylostella [3] amounted to 10%.

On to `COc1ccc(C(=O)/C=C/c2cccc3ccccc23)cc1`, for which the solubility entry in data set [4] is given as “Insoluble”.

For the molecule `Cc1ccc(C(=O)/C=C/c2ccc(Cl)c(Cl)c2)cc1`, the mortality at 5000 µg/mL in the data set on Plutella xylostella [2] stood at 60%. The mortality at 10000 µg/mL in the data set on Plutella xylostella [3] was found to be 83.3%.

Turning to `COc1ccccc1C(=O)/C=C/c1ccc(Cl)c(Cl)c1`, the mortality at 5000 µg/mL with Plutella xylostella [2] is 50%. In addition, the mortality at 10000 µg/mL in the data set with Plutella xylostella [3] turned out to be 63.3%.

For `COc1cccc(C(=O)/C=C/c2ccc(Cl)c(Cl)c2)c1`, in data set [4], the solubility result was “Insoluble”.

For the molecule `COc1ccc(C(=O)/C=C/c2ccc(Cl)c(Cl)c2)cc1OC`, the mortality at 5000 µg/mL in the data set with Plutella xylostella [2] amounted to 46.6%. For the same molecule, the mortality at 10000 µg/mL in the data set on Plutella xylostella [3] came out at 68%.

Consider `O=C(/C=C/c1ccc(Cl)c(Cl)c1)c1ccc(Cl)cc1`, for which the mortality at 5000 µg/mL with Plutella xylostella [2] came to 60%. Also, the mortality at 10000 µg/mL with Plutella xylostella [3] turned out to be 97.7%.

`O=C(/C=C/c1ccc(Cl)c(Cl)c1)c1ccc(Cl)c(Cl)c1`: the mortality at 5000 µg/mL in the data set on Plutella xylostella [2] is 46.6%. For the same molecule, in the data set with Plutella xylostella [3], the mortality at 10000 µg/mL was 73.3%.

With `COc1cc(OC)c(OC)cc1/C=C/C(C)=O`, the mortality at 5000 µg/mL in the data set on Plutella xylostella [2] is 0%. Further, the mortality at 10000 µg/mL in the data set with Plutella xylostella [3] amounted to 26.6%.

Take `COc1cc(C(=O)/C=C/c2ccc(Cl)c(Cl)c2)cc(OC)c1OC`: the solubility entry in data set [4] was “Insoluble”.

Consider `COc1ccc(C(=O)/C=C/c2ccc(F)cc2)cc1`, for which the mortality at 5000 µg/mL in the data set with Plutella xylostella [2] was determined as 26.6%. Besides, the mortality at 10000 µg/mL with Plutella xylostella [3] was 33.3%.

Consider `COc1ccc(/C=C/C(=O)c2ccc(Cl)cc2)cc1`, for which the mortality at 5000 µg/mL in the data set with Plutella xylostella [2] amounted to 26.6%. Moreover, in the data set on Plutella xylostella [3], the mortality at 10000 µg/mL is 50%.

Consider `COc1ccc(C(=O)/C=C/c2ccc(Cl)cc2)cc1`, for which the LC50 in the data set on Plutella xylostella [1] was 356 µg/mL (≈ 1310 µM). Further, the mortality at 5000 µg/mL in the data set on Plutella xylostella [2] stood at 100%. Also, the mortality at 10000 µg/mL in the data set on Plutella xylostella [3] worked out at 100%.

Turning to `COc1ccc(/C=C/C(C)=O)cc1`, the mortality at 5000 µg/mL with Plutella xylostella [2] was determined as 26.6%. Also, the mortality at 10000 µg/mL in the data set on Plutella xylostella [3] was 30%.

For the molecule `O=C(/C=C/c1ccc(Cl)cc1)c1ccc(O)cc1`, the LC50 in the data set with Plutella xylostella [1] stood at 871 µg/mL (≈ 3370 µM). In addition, in the data set on Plutella xylostella [2], the mortality at 5000 µg/mL turned out to be 100%. Moreover, in the data set with Plutella xylostella [3], the mortality at 10000 µg/mL is 100%.

Turning to `O=C(/C=C/c1ccc(Cl)cc1)c1ccc(Cl)cc1` [4',4-DICHLOROCHALCONE], the LC50 in the data set with Plutella xylostella [1] was 170 µg/mL (≈ 614 µM). Moreover, the mortality at 5000 µg/mL in the data set on Plutella xylostella [2] was 100%. Besides, the mortality at 10000 µg/mL in the data set on Plutella xylostella [3] stood at 100%.

Consider `COc1ccc(/C=C/C(=O)c2ccc(OC)cc2)cc1` [4,4'-DIMETHOXYCHALCONE], for which the mortality at 5000 µg/mL in the data set with Plutella xylostella [2] turned out to be 16.6%. The mortality at 10000 µg/mL in the data set on Plutella xylostella [3] was found to be 26.6%.

`COc1cc(/C=C/C(C)=O)ccc1O` [DEHYDROZINGERONE]: the solubility entry in data set [4] was “Insoluble”.

Turning to `CC1(C)[C@H](C(=O)O[C@H](C#N)c2cccc(Oc3ccccc3)c2)[C@@H]1C=C(Br)Br` [DELTAMETHRIN], in the data set with Plutella xylostella [1], the LC50 was 6.25 µg/mL (≈ 12.4 µM).
